Reference: patent US20260285866A1, “MODULATORS OF TRPML, THEIR COMPOSITIONS AND METHODS OF USE” (Caraway Therapeutics, Inc., priority 2024, published 2026)

Key:
[1] = target: T1, Human TRPML3 (Homo sapiens, UniProt Q8TDD5); assay: Fluorescent TRPML3 assay (as for TRPML1); format: cell-based; settings: fluorescent calcium assay as for TRPML1, TRPML3 subtype
T1 construct: expressed in transfected cells
T1 sequence (Q8TDD5 1-553): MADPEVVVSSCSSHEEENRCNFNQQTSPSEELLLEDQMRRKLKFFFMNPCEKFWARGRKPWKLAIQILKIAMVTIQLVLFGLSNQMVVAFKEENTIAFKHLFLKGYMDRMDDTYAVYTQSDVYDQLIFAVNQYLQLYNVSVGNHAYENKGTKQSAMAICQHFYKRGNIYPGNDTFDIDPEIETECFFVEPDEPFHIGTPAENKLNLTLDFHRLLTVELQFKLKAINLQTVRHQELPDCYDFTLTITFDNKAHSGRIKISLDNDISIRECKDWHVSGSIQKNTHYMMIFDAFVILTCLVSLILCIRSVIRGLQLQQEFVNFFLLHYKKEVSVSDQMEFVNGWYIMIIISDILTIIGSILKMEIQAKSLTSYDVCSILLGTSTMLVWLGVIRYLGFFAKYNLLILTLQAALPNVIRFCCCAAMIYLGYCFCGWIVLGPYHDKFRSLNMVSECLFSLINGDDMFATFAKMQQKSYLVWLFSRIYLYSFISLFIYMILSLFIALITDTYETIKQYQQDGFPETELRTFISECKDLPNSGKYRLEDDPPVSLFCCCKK
Procedure: (§1) HEK-293 Trex cells were stably transfected with a construct consisting of the human coding sequence for TRPML1 cloned into the tet-inducible plasmid pCDNA5 T/O. Mutations were introduced into the TRPML1 sequence to facilitate expression on the cell surface (Silvia Vergarajauregui, Rosa Puertollano Traffic. 2006 March; 7(3): 337-353). Briefly, the cells are cultured in 150 mm round tissue culture dishes containing 20 mL of media. The day before the assay the cells are rinsed with DPBS-Ca-Mg and then treated briefly with Trypsin-EDTA. The Trypsin-EDTA is diluted with growth media, and cells are counted. 38×10^6 cells are re-plated into 150 mm round tissue culture dishes in media containing 0.5 μg/mL doxycycline to induce expression of hTRPML1.
(§2) The day of the experiment cells are lifted from the plates as above and collected by centrifugation. The cells are then suspended in dye loading buffer consisting of Ringer's solution supplemented with 0.1% Pluronic Acid and 1 micromolar Fluo4-AM dye. Cells are loaded for ~60 minutes in the dark with occasional mixing. The cells are collected by centrifugation, the loading media aspirated, and the cells resuspended in 25 mL Ringer's solution and incubated ~60 minutes in the dark. The cells are again collected by centrifugation, rinsed in Ringer's Solution and resuspended to 0.2×10^6 cells/mL in modified Ringer's solution containing 10 mM calcium.
(§3) Compounds are dissolved to a concentration of 10 millimolar with DMSO. Compound plates are created by dispensing compounds into 384 well black wall clear bottom plates (Greiner 781091). Positive and negative controls are included on each plate. Typically, different amounts of each compound are tested ranging from 100 nanoMoles (20 micromolar final concentration) decreasing in half-log steps to 31 picoMoles (6 nanomolar final concentration). Each concentration is typically tested in triplicate.
(§4) 50 microliters of dye-loaded cells are dispensed into each well of the compound assay plate created above. The fluorescence in each well is then determined with an excitation wavelength of 480 nm and an emission wavelength of 540 nm using either a Molecular Devices SpectraMax multimode plate reader or a Hamamatsu FDSS/uCell plate imager.
(§5) The resulting fluorescence for each well is exported as an ascii file and loaded into our LIMS for analysis. The percent activity of each compound at each concentration is determined by comparison to the positive and negative control wells included in each plate.
Assays for TRPML2 and TRPML3 were performed as above for TRPML1, by substituting the appropriate TRPML2 or TRPML3 subtype for the TRPML1.
(§6) EC50 values were calculated using a non-linear regression of Prism. In the table, “A” indicates an EC50 of less than 100 nM, “B” indicates an EC50 range from 100 nM to 500 nM: “C” indicates an EC50 range from 500 nM to 2 μM; and “D” indicates an EC50 greater than 2 μM.

[2] = target: Human TRPML1 (Homo sapiens, UniProt Q9GZU1, L15A/L16A/L577A/L578A); assay: Fluorescent TRPML1 assay (Fluo4-AM, HEK-293 Trex cells expressing hTRPML1); format: cell-based; settings: fluorescent calcium assay, doxycycline-induced hTRPML1
Human TRPML1, sequence (Q9GZU1 whole entry L15A/L16A/L577A/L578A): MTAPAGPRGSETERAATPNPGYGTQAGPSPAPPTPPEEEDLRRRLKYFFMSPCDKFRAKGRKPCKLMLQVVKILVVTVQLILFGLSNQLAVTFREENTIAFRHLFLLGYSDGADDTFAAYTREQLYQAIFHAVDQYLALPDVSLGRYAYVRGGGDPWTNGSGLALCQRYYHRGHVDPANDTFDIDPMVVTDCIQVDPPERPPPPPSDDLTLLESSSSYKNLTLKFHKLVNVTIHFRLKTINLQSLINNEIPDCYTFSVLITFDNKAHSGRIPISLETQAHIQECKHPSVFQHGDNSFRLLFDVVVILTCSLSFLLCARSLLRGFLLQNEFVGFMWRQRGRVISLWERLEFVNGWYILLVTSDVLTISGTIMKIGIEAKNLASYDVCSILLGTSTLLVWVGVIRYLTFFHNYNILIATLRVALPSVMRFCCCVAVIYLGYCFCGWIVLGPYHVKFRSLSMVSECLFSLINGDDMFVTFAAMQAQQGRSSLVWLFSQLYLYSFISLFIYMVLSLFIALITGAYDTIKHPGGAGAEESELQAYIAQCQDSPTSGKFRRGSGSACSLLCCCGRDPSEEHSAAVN
Procedure: Example 27. Fluorescent TRPML Assays
as §1, §2, §3, §4, §5, §6

| Structure (SMILES) | EC50 [1] | EC50 [2] |
| --- | --- | --- |
| CC(C)[C@H]1CN(C(=O)C(C)(C)O)CCN1c1ncnc2c1c(-c1ccccc1)cn2-c1cc(C#N)ccn1 [Compound 112, (S)-2-(4-(4-(2-hydroxy-2-methylpropanoyl)-2-isopropylpiperazin-1-yl)-5-phenyl-7H-pyrrolo[2,3-d]pyrimidin-7-yl)isonicotinonitrile] | 0.5 to 2 µM | 0.5 to 2 µM |
| C[C@@H]1CN(c2nccc3c2c(-c2ccncc2)cn3-c2cc(F)ccn2)[C@@H](C)CN1C(=O)C(C)(C)O [Compound 141, 1-((2R,5S)-4-(1-(4-fluoropyridin-2-yl)-3-(pyridin-4-yl)-1H-pyrrolo[3,2-c]pyridin-4-yl)-2,5-dimethylpiperazin-1-yl)-2-hydroxy-2-methylpropan-1-one] | > 2 µM | > 2 µM |
| C[C@@H]1CN(c2ncnc3c2c(-c2ccncc2)cn3-c2cccc(F)c2)[C@@H](C)CN1C(=O)C(C)(C)O [Compound 139, 1-((2R,5S)-4-(7-(3-fluorophenyl)-5-(pyridin-4-yl)-7H-pyrrolo[2,3-d]pyrimidin-4-yl)-2,5-dimethylpiperazin-1-yl)-2-hydroxy-2-methylpropan-1-one] | > 2 µM | > 2 µM |
| C[C@@H]1CN(c2nccc3c2c(-c2ccncc2)cn3-c2cc(C#N)ccn2)[C@@H](C)CN1C(=O)C(C)(C)O [Compound 140, 2-(4-((2S,5R)-4-(2-hydroxy-2-methylpropanoyl)-2,5-dimethylpiperazin-1-yl)-3-(pyridin-4-yl)-1H-pyrrolo[3,2-c]pyridin-1-yl)isonicotinonitrile] | > 2 µM | 0.5 to 2 µM |
| CC(C)(O)C(=O)N1CCN(c2ncnc3c2c(-c2ccccc2F)cn3-c2cc(C#N)ccn2)CC1 [Compound 124, 2-(5-(2-fluorophenyl)-4-(4-(2-hydroxy-2-methylpropanoyl)piperazin-1-yl)-7H-pyrrolo[2,3-d]pyrimidin-7-yl)isonicotinonitrile] | – | 0.5 to 2 µM |
| C[C@@H]1CN(c2nccc3c2c(-c2ccncc2)cn3-c2cc(F)cc(F)c2)[C@@H](C)CN1C(=O)C(C)(C)O [Compound 143, 1-((2R,5S)-4-(1-(3,5-difluorophenyl)-3-(pyridin-4-yl)-1H-pyrrolo[3,2-c]pyridin-4-yl)-2,5-dimethylpiperazin-1-yl)-2-hydroxy-2-methylpropan-1-one] | – | > 2 µM |
| C[C@@H]1CN(c2ncnc3c2c(-c2ccncc2)cn3-c2cc(C#N)ccn2)[C@@H](C)CN1C(=O)C1(O)CC1 [Compound 149, 2-(4-((2S,5R)-4-(1-hydroxycyclopropane-1-carbonyl)-2,5-dimethylpiperazin-1-yl)-5-(pyridin-4-yl)-7H-pyrrolo[2,3-d]pyrimidin-7-yl)isonicotinonitrile] | > 2 µM | 0.5 to 2 µM |
| C[C@@H]1CN(c2ncnc3c2c(-c2ccccc2F)cn3-c2cc(C#N)ccn2)[C@@H](C)CN1C(=O)C1(O)CCN(C)CC1 [Compound 123, 2-(5-(2-fluorophenyl)-4-((2S,5R)-4-(4-hydroxy-1-methylpiperidine-4-carbonyl)-2,5-dimethylpiperazin-1-yl)-7H-pyrrolo[2,3-d]pyrimidin-7-yl)isonicotinonitrile] | > 2 µM | > 2 µM |
| CC(C)(O)C(=O)N1CCN(c2ncnc3c2c(-c2ccccc2)cn3-c2cc(C#N)ccn2)[C@@H](C2CC2)C1 [Compound 113] | 0.5 to 2 µM | 0.5 to 2 µM |
| C[C@@H]1CN(c2ncnc3c2c(C2CC2)cn3-c2cc(C#N)ccn2)[C@@H](C)CN1C(=O)C(C)(C)O [Compound 105, 2-(5-cyclopropyl-4-((2S,5R)-4-(2-hydroxy-2-methylpropanoyl)-2,5-dimethylpiperazin-1-yl)-7H-pyrrolo[2,3-d]pyrimidin-7-yl)isonicotinonitrile] | – | 0.5 to 2 µM |
| C[C@@H]1CN(c2nccc3c2c(-c2ccncc2)cn3-c2cccc(F)c2)[C@@H](C)CN1C(=O)C(C)(C)O [Compound 144, 1-((2R,5S)-4-(1-(3-fluorophenyl)-3-(pyridin-4-yl)-1H-pyrrolo[3,2-c]pyridin-4-yl)-2,5-dimethylpiperazin-1-yl)-2-hydroxy-2-methylpropan-1-one] | > 2 µM | > 2 µM |
| C[C@@H]1CN(c2ncnc3c2c(-c2cccnc2)cn3-c2cc(C#N)ccn2)[C@@H](C)CN1C(=O)C(C)(C)O [Compound 115, 2-(4-((2S,5R)-4-(2-hydroxy-2-methylpropanoyl)-2,5-dimethylpiperazin-1-yl)-5-(pyridin-3-yl)-7H-pyrrolo[2,3-d]pyrimidin-7-yl)isonicotinonitrile] | > 2 µM | 0.5 to 2 µM |
| C[C@@H]1CN(c2ncnc3c2c(-c2ccccc2)cn3-c2cc(C#N)ccn2)[C@@H](C2CC2)CN1C(=O)C(C)(C)O [Compound 119, 2-(4-((2S,5R)-2-cyclopropyl-4-(2-hydroxy-2-methylpropanoyl)-5-methylpiperazin-1-yl)-5-phenyl-7H-pyrrolo[2,3-d]pyrimidin-7-yl)isonicotinonitrile] | 0.5 to 2 µM | 0.1 to 0.5 µM |
| C[C@@H]1CN(c2ncnc3c2c(-c2cnco2)cn3-c2cc(C#N)ccn2)[C@@H](C)CN1C(=O)C(C)(C)O [Compound 127, 2-(4-((2S,5R)-4-(2-hydroxy-2-methylpropanoyl)-2,5-dimethylpiperazin-1-yl)-5-(oxazol-5-yl)-7H-pyrrolo[2,3-d]pyrimidin-7-yl)isonicotinonitrile] | > 2 µM | 0.1 to 0.5 µM |
| C[C@@H]1CN(c2ncnc3c2c(-c2cncnc2)cn3-c2cc(C#N)ccn2)[C@@H](C)CN1C(=O)C(C)(C)O [Compound 116, 2-(4-((2S,5R)-4-(2-hydroxy-2-methylpropanoyl)-2,5-dimethylpiperazin-1-yl)-5-(pyrimidin-5-yl)-7H-pyrrolo[2,3-d]pyrimidin-7-yl)isonicotinonitrile] | > 2 µM | > 2 µM |
| C[C@@H]1CN(c2ncnc3c2c(-c2ccncc2)cn3-c2cc(F)ccn2)[C@@H](C)CN1C(=O)C(C)(C)O [Compound 136, 1-((2R,5S)-4-(7-(4-fluoropyridin-2-yl)-5-(pyridin-4-yl)-7H-pyrrolo[2,3-d]pyrimidin-4-yl)-2,5-dimethylpiperazin-1-yl)-2-hydroxy-2-methylpropan-1-one] | > 2 µM | 0.5 to 2 µM |
| C[C@@H]1CN(c2ncnc3c2c(-c2nncs2)cn3-c2cc(C#N)ccn2)[C@@H](C)CN1C(=O)C(C)(C)O [Compound 155, 2-(4-((2S,5R)-4-(2-hydroxy-2-methylpropanoyl)-2,5-dimethylpiperazin-1-yl)-5-(1,3,4-thiadiazol-2-yl)-7H-pyrrolo[2,3-d]pyrimidin-7-yl)isonicotinonitrile] | – | > 2 µM |
| C[C@@H]1CN(c2ncnc3c2c(C2CC2)cn3-c2cc(C#N)ccn2)[C@@H](C)CN1C(=O)CC(O)(C(F)(F)F)C(F)(F)F [Compound 162, 2-(5-cyclopropyl-4-((2S,5R)-2,5-dimethyl-4-(4,4,4-trifluoro-3-hydroxy-3-(trifluoromethyl)butanoyl)piperazin-1-yl)-7H-pyrrolo[2,3-d]pyrimidin-7-yl)isonicotinonitrile] | 0.1 to 0.5 µM | – |
| C[C@@H]1CN(c2ncnc3c2c(-c2ccncc2)cn3-c2cc(F)cc(F)c2)[C@@H](C)CN1C(=O)C(C)(C)O [Compound 138, 1-((2R,5S)-4-(7-(3,5-difluorophenyl)-5-(pyridin-4-yl)-7H-pyrrolo[2,3-d]pyrimidin-4-yl)-2,5-dimethylpiperazin-1-yl)-2-hydroxy-2-methylpropan-1-one] | – | > 2 µM |
